Reference: US11124517B2 (CRYSTAL PHARMACEUTICAL (SUZHOU) CO., LTD., priority 2017, dated 2021)
Values after ≈ are worked out from the molar mass of the structure shown. Blank lines part the entries; values can stand above or below the compound they belong to.

Key:
[1] = Adhesiveness: material sticking to the punch on tableting; assay type: physicochemical; conditions: 30 mg, φ8 mm round tooling, 10 KN, 30 s
Experimental: 30 mg of Form G and the crystalline form of the prior art were weighed and added into the dies of φ8 mm round tooling, tableted at 10 KN and held for 30 s. The amount of material sticking to the punch was weighed. The compression was repeated twice and the cumulative amount, maximum amount and average amount of material sticking to the punch during the compression process were recorded.

[2] = Stability of Form G on storage, crystalline form checked by XRPD; assay type: physicochemical; conditions: for Crystalline form after storage: XRPD
Text: Crystalline forms were checked by XRPD.

[3] = physchem; conditions: thermodynamic from solid
Experimental: (§1) Simulated gastrointestinal fluids such as SGF (Simulated gastric fluids), FaSSIF (Fasted state simulated intestinal fluids) and FeSSIF (Fed state simulated intestinal fluids) are biorelevant media. […] 20 mg of Form G and 20 mg of crystalline form of the prior art were suspended into 1.5 mL of SGF, 1.5 mL of FaSSIF, 1.5 mL of FaSSIF and 1.5 mL of water to get saturated solutions. After equilibrated for 1 h, 4 h and 24 h, concentrations of the saturated solutions were measured by HPLC (mg/mL).

[4] = Hygroscopicity by dynamic vapor sorption (DVS); assay type: physicochemical
Experimental: Dynamic vapor sorption (DVS) was applied to test hygroscopicity of Form G and the crystalline form of the prior art with about 10 mg of samples. The weight gains at each relative humidity were recorded in a cycle of 0-95%-0 RH.

[5] = Bulk and tapped density of powder; assay type: physicochemical; conditions: for Bulk density (ρ0): about 500 mg in 5-mL measuring cylinder; for Tapped density (ρf): tapped 1250 times
Experimental: The density of powder is mainly referred to the bulk density and tapped density. The bulk density refers to the density obtained by dividing the mass of the powder by the volume of the powder in the container. The tapped density is obtained by dividing the mass of the powder by the volume of the powder which is tapped to the tightest state.
About 500 mg of Form G and the crystalline form of the prior art are added into a 5-mL measuring cylinder to measure the bulk volumes. The bulk density was calculated according to the equation: bulk density ρ0=powder mass/bulk volume. The samples were tapped 1250 times to make them in the tightest state and the tapped volumes were recorded. The tapped density was calculated according to tapped density ρf=powder mass/tapped volume.

[6] = Kinetic solubility in biorelevant media and water (HPLC); conditions: thermodynamic from solid
Experimental: as §1

[7] = Flowability by compressibility index (Carr index); assay type: physicochemical; conditions: graded from compressibility index
Experimental: Compressibility is usually used to evaluate the flowability of powder and granular intermediates during the formulation process, and is known as compressibility index (c). Compressibility index test method is as follows: a certain amount of powder was added into a measuring cylinder and bulk volume was recorded. Then the powder was tapped to make it in the tightest state, and the tapped volume was recorded. The bulk density (ρ0), tapped density (ρf) were calculated, and compressibility index was calculated according to c=(ρf−ρ0)/pf. Compressibility index, also known as Carr index, is an important index for evaluating flowability.
The test method of Compressibility index is as follows: Compressibility index was calculated according to bulk density ρ0 and tapped density ρf of Form G and the crystalline form of the prior art with c=(ρf−ρ0)/ρf*100%.

[8] = FaSSIF (fasted state simulated intestinal fluid), fassif
[9] = FeSSIF (fed state simulated intestinal fluid), fessif
[10] = SGF (simulated gastric fluid), simulated gastric fluid

Average amount of material sticking to the punch [1]: 0.06 mg | Cumulative amount of material sticking to the punch [1]: 0.12 mg | Maximum amount of material sticking to the punch [1]: 0.12 mg | Time for which the form is stable ([2]; 25° C./60% RH (long term)): at least 6 months | Crystalline form after storage ([2]; 25° C./60% RH, 6 months): Form G | Time for which the form is stable ([2]; 40° C./75% RH (accelerated)): at least 6 months | Crystalline form after storage ([2]; 40° C./75% RH, 6 months): Form G | Time for which the form is stable ([2]; 60° C./75% RH): at least 1 week | Crystalline form after storage ([2]; 60° C./75% RH, 1 week): Form G | Time for which the form is stable ([2]; 80° C.): at least 1 week | Crystalline form after storage ([2]; 80° C., 1 week): Form G | solubility kinetic at 1 h ([3]; fassif): 81 µg/mL (≈ 218 µM) | solubility kinetic at 4 h ([3]; fassif): 100 µg/mL (≈ 269 µM) | solubility kinetic at 24 h ([3]; fassif): 140 µg/mL (≈ 377 µM) | solubility kinetic at 1 h ([3]; fessif): 130 µg/mL (≈ 350 µM) | solubility kinetic at 4 h ([3]; fessif): 170 µg/mL (≈ 458 µM) | solubility kinetic at 24 h ([3]; fessif): 220 µg/mL (≈ 592 µM) | solubility kinetic at 1 h ([3]; simulated gastric fluid): 2600 µg/mL (≈ 7000 µM) | solubility kinetic at 4 h ([3]; simulated gastric fluid): 2700 µg/mL (≈ 7270 µM) | solubility kinetic at 24 h ([3]; simulated gastric fluid): 2800 µg/mL (≈ 7540 µM) | solubility kinetic at 1 h ([3]; water): 52 µg/mL (≈ 140 µM) | solubility kinetic at 4 h ([3]; water): 66 µg/mL (≈ 178 µM) | solubility kinetic at 24 h ([3]; water): 96 µg/mL (≈ 258 µM) | Weight gain % ([4]; Relative humidity 0): 0% | Weight gain % ([4]; Relative humidity 10%): 0.01% | Weight gain % ([4]; Relative humidity 20%): 0.03% | Weight gain % ([4]; Relative humidity 30%): 0.04% | Weight gain % ([4]; Relative humidity 40%): 0.06% | Weight gain % ([4]; Relative humidity 50%): 0.07% | Weight gain % ([4]; Relative humidity 60%): 0.10% | Weight gain % ([4]; Relative humidity 70%): 0.15% | Weight gain % ([4]; Relative humidity 80%): 0.21% | Weight gain % ([4]; Relative humidity 90%): 0.27% | Weight gain % ([4]; Relative humidity 95%): 0.34% | Crystalline form change before and after DVS ([4]; XRPD overlay, cycle 0-95%-0 RH): no crystalline form change | Bulk density (ρ0) [5]: 0.538 g/mL | Tapped density (ρf) [5]: 0.614 g/mL
Compound: CCS(=O)(=O)N1CC(CC#N)(n2cc(-c3ncnc4[nH]ccc34)cn2)C1 [Form G, Baricitinib]

Average amount of material sticking to the punch [1]: 0.21 mg | Cumulative amount of material sticking to the punch [1]: 0.41 mg | Maximum amount of material sticking to the punch [1]: 0.43 mg | solubility kinetic at 1 h [6, 8]: 16 µg/mL (≈ 43.1 µM) | solubility kinetic at 4 h [6, 8]: 18 µg/mL (≈ 48.5 µM) | solubility kinetic at 24 h [6, 8]: 18 µg/mL (≈ 48.5 µM) | solubility kinetic at 1 h [6, 9]: 35 µg/mL (≈ 94.2 µM) | solubility kinetic at 4 h [6, 9]: 31 µg/mL (≈ 83.5 µM) | solubility kinetic at 24 h [6, 9]: 33 µg/mL (≈ 88.8 µM) | solubility kinetic at 1 h [6, 10]: 1900 µg/mL (≈ 5120 µM) | solubility kinetic at 4 h [6, 10]: 1900 µg/mL (≈ 5120 µM) | solubility kinetic at 24 h [6, 10]: 1900 µg/mL (≈ 5120 µM) | solubility kinetic at 1 h ([6]; water): 8.9 µg/mL (≈ 24 µM) | solubility kinetic at 4 h ([6]; water): 12 µg/mL (≈ 32.3 µM) | solubility kinetic at 24 h ([6]; water): 13 µg/mL (≈ 35 µM) | Flowability [7]: Very poor (32-37) | Flowability ([7]; listed as the prior art form): very poor | Weight gain % ([4]; Relative humidity 0): 0% | Weight gain % ([4]; Relative humidity 10%): 0.07% | Weight gain % ([4]; Relative humidity 20%): 0.11% | Weight gain % ([4]; Relative humidity 30%): 0.15% | Weight gain % ([4]; Relative humidity 40%): 0.19% | Weight gain % ([4]; Relative humidity 50%): 0.24% | Weight gain % ([4]; Relative humidity 60%): 0.30% | Weight gain % ([4]; Relative humidity 70%): 0.36% | Weight gain % ([4]; Relative humidity 80%): 0.44% | Weight gain % ([4]; Relative humidity 90%): 0.59% | Weight gain % ([4]; Relative humidity 95%): 0.78% | Bulk density (ρ0) [5]: 0.133 g/mL | Tapped density (ρf) [5]: 0.204 g/mL
Compound: CCS(=O)(=O)N1CC(CC#N)(n2cc(-c3ncnc4[nH]ccc34)cn2)C1 [Crystalline form of the prior art, Baricitinib, reference compound]
